Experimental findings from ChEMBL document CHEMBL2375296, “BCR-ABL tyrosine kinase inhibitor pharmacophore model derived from a series of phenylaminopyrimidine-based (PAP) derivatives” (Bioorg Med Chem Lett, 2013) are described below.

For this assay, the target named is Bcr/Abl fusion protein (Homo sapiens, UniProt P00519). Description: Inhibition of BCR-ABL kinase (unknown origin). It counts as protein assay.
Chain of Bcr/Abl fusion protein (P00519 whole entry, the tested form may be a part): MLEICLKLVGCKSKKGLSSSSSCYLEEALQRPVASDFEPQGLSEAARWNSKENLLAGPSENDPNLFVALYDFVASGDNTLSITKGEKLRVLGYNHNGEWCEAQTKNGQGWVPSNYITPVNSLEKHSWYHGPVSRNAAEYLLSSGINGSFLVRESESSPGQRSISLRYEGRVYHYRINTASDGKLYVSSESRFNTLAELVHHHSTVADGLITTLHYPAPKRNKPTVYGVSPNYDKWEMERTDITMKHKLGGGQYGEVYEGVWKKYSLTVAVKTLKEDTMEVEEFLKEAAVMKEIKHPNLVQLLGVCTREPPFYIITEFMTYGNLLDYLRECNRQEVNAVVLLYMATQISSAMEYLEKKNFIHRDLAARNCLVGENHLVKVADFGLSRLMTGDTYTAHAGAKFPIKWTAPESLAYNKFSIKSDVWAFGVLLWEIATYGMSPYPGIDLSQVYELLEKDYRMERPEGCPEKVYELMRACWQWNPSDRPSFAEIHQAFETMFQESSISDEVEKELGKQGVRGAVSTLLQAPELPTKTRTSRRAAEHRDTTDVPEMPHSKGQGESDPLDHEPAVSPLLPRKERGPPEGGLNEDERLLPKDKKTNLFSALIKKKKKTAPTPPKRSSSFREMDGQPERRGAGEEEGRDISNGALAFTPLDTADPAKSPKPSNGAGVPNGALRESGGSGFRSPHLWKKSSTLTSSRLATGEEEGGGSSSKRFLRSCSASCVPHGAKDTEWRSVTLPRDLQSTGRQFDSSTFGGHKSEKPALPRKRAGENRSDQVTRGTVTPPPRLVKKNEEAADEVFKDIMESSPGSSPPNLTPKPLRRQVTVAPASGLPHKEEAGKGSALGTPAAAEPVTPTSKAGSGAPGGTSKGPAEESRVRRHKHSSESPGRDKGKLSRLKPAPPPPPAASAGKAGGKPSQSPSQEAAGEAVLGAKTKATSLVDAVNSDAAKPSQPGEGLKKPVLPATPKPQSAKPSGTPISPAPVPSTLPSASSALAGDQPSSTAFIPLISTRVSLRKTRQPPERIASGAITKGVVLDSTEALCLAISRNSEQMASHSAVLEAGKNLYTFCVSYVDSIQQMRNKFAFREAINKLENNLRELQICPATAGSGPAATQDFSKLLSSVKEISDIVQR
Chain of Bcr/Abl fusion protein (P11274 whole entry, further chain, the tested form may be a part): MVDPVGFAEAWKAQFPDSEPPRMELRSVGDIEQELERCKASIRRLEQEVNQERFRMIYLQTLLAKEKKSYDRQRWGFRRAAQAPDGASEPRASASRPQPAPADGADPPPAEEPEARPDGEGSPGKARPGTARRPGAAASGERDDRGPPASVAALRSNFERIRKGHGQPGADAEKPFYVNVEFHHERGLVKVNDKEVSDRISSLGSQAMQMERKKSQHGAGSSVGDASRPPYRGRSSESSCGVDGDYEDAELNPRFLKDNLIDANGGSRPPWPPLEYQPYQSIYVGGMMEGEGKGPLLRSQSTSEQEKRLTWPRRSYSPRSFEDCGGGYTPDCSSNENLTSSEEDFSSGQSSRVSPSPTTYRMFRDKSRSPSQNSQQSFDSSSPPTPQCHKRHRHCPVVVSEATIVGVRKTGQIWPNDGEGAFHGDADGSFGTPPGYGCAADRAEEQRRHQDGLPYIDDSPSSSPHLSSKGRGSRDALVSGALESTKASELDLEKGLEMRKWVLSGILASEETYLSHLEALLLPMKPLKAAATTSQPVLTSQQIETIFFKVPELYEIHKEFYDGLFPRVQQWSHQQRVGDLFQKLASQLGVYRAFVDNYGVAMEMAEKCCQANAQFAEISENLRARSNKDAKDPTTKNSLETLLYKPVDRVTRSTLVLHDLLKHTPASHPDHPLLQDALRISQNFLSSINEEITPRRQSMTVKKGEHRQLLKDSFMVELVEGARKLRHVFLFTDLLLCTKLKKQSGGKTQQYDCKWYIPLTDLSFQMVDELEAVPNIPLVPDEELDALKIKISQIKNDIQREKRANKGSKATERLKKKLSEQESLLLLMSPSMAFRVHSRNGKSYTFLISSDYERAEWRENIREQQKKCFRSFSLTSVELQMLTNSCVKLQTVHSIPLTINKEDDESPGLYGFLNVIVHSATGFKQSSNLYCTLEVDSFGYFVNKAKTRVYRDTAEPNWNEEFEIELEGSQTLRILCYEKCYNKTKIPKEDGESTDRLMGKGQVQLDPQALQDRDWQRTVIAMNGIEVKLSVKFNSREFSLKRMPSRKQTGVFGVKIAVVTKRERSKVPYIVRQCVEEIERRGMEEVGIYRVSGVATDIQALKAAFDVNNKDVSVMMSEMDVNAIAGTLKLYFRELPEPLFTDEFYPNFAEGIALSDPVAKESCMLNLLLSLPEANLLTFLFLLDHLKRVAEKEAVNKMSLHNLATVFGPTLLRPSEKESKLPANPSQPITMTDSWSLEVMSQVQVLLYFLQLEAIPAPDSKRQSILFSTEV

As for `FC(F)C(F)(F)Oc1cccc(Nc2nccc(-c3ccncc3)n2)c1`, 100000 nM corresponded to half-maximal inhibition (IC50).

As to `O=C(Nc1cccc(Nc2nccc(-c3cccnc3)n2)c1)c1ccccc1`, 398 nM corresponded to half-maximal inhibition (IC50).

As for `CC(C)(NC(=O)c1cc2c(NC(=O)c3ccc(CN4CCCCC4)cc3)n[nH]c2s1)c1ccccc1`, the IC50 (as a rule, the concentration that gives 50% inhibition) was 20.9 nM.

In the case of `Cc1ccc(NC(=O)c2ccc(/N=N/N(C)C)cc2)cc1Nc1nccc(-c2cccnc2)n1`, the concentration for half-maximal inhibition (IC50) is 2190 nM.

Take `Cc1ccc(NC(=O)c2ccc(CN3CCC(N(C)C)C3)c(C(F)(F)F)c2)cc1Nc1nccc(-c2cncnc2)n1` (stereo not drawn): inhibition was half-maximal at 3.98 nM (IC50).

`Cc1ccc(C(=O)Nc2cccc(Nc3nccc(-c4cccnc4)n3)c2)cc1` gave an IC50 of 1000 nM.

`CN1CCN(c2ccc(C(=O)Nc3[nH]nc4c3CN(C(=O)Cc3cccs3)C4)cc2)CC1` had a half-inhibitory concentration (IC50) of 64.6 nM.

Turning to `Cc1ccc(NC(=O)Nc2cccc(N(C)C)c2)cc1Nc1nccc(-c2cccnc2)n1`, the IC50 is 575 nM.

Compound `FC(F)C(F)(F)Oc1cccc(Nc2nccc(-c3c[nH]c4ccccc34)n2)c1` gave an IC50 of 372 nM.

Compound `Cc1ccc(NC(=O)c2ccc(CN3CC(N(C)C)C3)c(C(F)(F)F)c2)cc1Nc1nccc(-c2cncnc2)n1` showed an IC50 of 17 nM.

In the case of `O=C(Nc1cccc(Nc2nccc(-c3cccnc3)n2)c1)C1=CC=CCC1=S`, the IC50 was 302 nM.

In the case of `Clc1cccc(Nc2nccc(-c3cccnc3)n2)c1`, 1510 nM corresponded to half-maximal inhibition (IC50).

As to `NCCCCNC(=O)c1cccc(Nc2nccc(-c3cccnc3)n2)c1`, the IC50 was 398 nM.

On to `COCCN(C)/N=N/c1ccc(C(=O)Nc2cccc(Nc3nccc(-c4cccnc4)n3)c2)cc1`, for which the IC50 is 33200 nM.

On to `CCN(CC)c1ccc(NC(=O)Nc2ccc(C)c(Nc3nccc(-c4cccnc4)n3)c2)cc1`, for which the IC50 is 10000 nM.

On to `Cc1ccc(NC(=O)c2ccc(Cl)cc2)cc1Nc1nccc(-c2cccnc2)n1`, for which the IC50 was 794 nM.

Compound `Nc1ccc(C(=O)Nc2cccc(Nc3nccc(-c4cccnc4)n3)c2)cc1` gave an IC50 of 9770 nM.

For `Nc1cccc(Nc2nccc(-c3cccnc3)n2)c1`, half-maximal inhibition (IC50) required 708 nM.

Take `CCCCCCC(=O)Nc1cccc(Nc2nccc(-c3cccnc3)n2)c1`: the IC50 is 200 nM.

Consider `N#Cc1ccc(C(=O)Nc2cccc(Nc3nccc(-c4cccnc4)n3)c2)cc1`, for which the IC50 was 1290 nM.

In the case of `CCN(CC)c1cccc(NC(=O)Nc2ccc(C)c(Nc3nccc(-c4cccnc4)n3)c2)c1`, the IC50 was 1000 nM.

`CN1CCN(c2ccc(C(=O)Nc3n[nH]c4sc(C(=O)NC(C)(C)c5ccccc5)cc34)cc2)CC1` gave a concentration for half-maximal inhibition (IC50) of 4.07 nM.

Regarding `COc1ccccc1C(=O)Nc1cccc(Nc2nccc(-c3cccnc3)n2)c1`, inhibition was half-maximal at 1910 nM (IC50).

`NCCCn1ccc2c(-c3ccnc(Nc4cccc(OC(F)(F)C(F)F)c4)n3)cccc21` had an IC50 of 347 nM.

Compound `O=C(Nc1cccc(Nc2nccc(-c3cccnc3)n2)c1)c1ccncc1` had an IC50 of 501 nM.

For `O=[N+]([O-])c1cccc(Nc2nccc(-c3ccncc3)n2)c1`, 61700 nM corresponded to half-maximal inhibition (IC50).

On to `Nc1cccc(Nc2nccc(-c3ccncc3)n2)c1`, for which the midpoint of inhibition, the IC50, lay at 603 nM.

The compound `O=C(O)c1cccc(Nc2nccc(-c3cccnc3)n2)c1` showed an IC50 of 7940 nM.

With `Cc1ccc(NC(=O)NCc2cccc(Cl)c2)cc1Nc1nccc(-c2cccnc2)n1`, inhibition was half-maximal at 1000 nM (IC50).

`O=C(O)c1ccccc1C(=O)Nc1cccc(Nc2nccc(-c3cccnc3)n2)c1` gave an IC50 of 2000 nM.

Regarding `O=C(Nc1cccc(Nc2nccc(-c3cccnc3)n2)c1)c1ccccn1`, half-maximal inhibition (IC50) was put at 3800 nM.

`Cc1ccc(NC(=O)c2ccc(N)cc2)cc1Nc1nccc(-c2cccnc2)n1` had an IC50 of 67600 nM.

The compound `Cc1ccc(N)cc1Nc1nccc(-c2cccnc2)n1` had a half-maximal inhibitory concentration (IC50) of 1510 nM.

With `Cc1ccc(NC(=O)c2ccc3ccccc3c2)cc1Nc1nccc(-c2cccnc2)n1`, the IC50 was 200 nM.

In turn, `CCC(=O)Nc1ccc(Sc2nc(Nc3cc(C)[nH]n3)cc(N3CCN(C)CC3)n2)cc1` showed an IC50 of 603 nM.

As to `O=C(Nc1cccc(Nc2nccc(-c3cccnc3)n2)c1)C1CCCCC1`, the IC50 is 447 nM.

Consider `c1cc(Nc2nccc(-c3cccnc3)n2)cc(OCCn2ccnc2)c1`, for which the IC50 was 1000 nM.

As to `COc1ccccc1C(=O)Nc1ccc(C)c(Nc2nccc(-c3cccnc3)n2)c1`, half-maximal inhibition (IC50) required 794 nM.

As for `Cc1ccc(NC(=O)N2CCN(C)CC2)cc1Nc1nccc(-c2cccnc2)n1`, the half-inhibitory concentration (IC50) was 5010 nM.

Compound `Cc1ccc(NC(=O)NCCN2CCCC2)cc1Nc1nccc(-c2cccnc2)n1` had an IC50 of 8910 nM.

Take `Cc1ccc(NC(=O)c2ccccc2)cc1Nc1nccc(-c2cccnc2)n1`: 398 nM corresponded to half-maximal inhibition (IC50).

In the case of `c1cncc(-c2ccnc(Nc3cccc(-n4ccnc4)c3)n2)c1`, the IC50 is 3310 nM.

In turn, `Cc1ccc(NC(=O)c2ccc(CN3CCC(CN(C)C)C3)c(C(F)(F)F)c2)cc1Nc1nccc(-c2cncnc2)n1` (stereo not drawn) had an IC50 of 11 nM.

Turning to `Cc1ccc(-c2ccnc(Nc3cccc(OC(F)(F)C(F)F)c3)n2)cc1`, the midpoint of inhibition, the IC50, lay at 50100 nM.

`COCCN/N=N/c1cccc(Nc2cc(-c3cccnc3)ncn2)c1` gave an IC50 of 5370 nM.

`O=C(Nc1cccc(Nc2nccc(-c3cccnc3)n2)c1)c1cccnc1` showed an IC50 of 151 nM.

Regarding `Cc1ccc(NC(=O)c2ccc(/N=N/N(C)CCCl)cc2)cc1Nc1nccc(-c2cccnc2)n1`, the IC50 is 17400 nM.

`O=[N+]([O-])c1cccc(Nc2nccc(-c3ccccn3)n2)c1` showed an IC50 of 1200 nM.

As to `Cc1cccc(Nc2nccc(-c3cccnc3)n2)c1`, inhibition was half-maximal at 1820 nM (IC50).

Turning to `CC(=O)Nc1ccc(C)c(Nc2nccc(-c3cccnc3)n2)c1`, it took 5750 nM to reach half-maximal inhibition (IC50).

Take `O=C(Nc1cccc(Nc2nccc(-c3cccnc3)n2)c1)c1ccc(F)cc1`: the IC50 is 200 nM.

Take `Cc1ccc(NC(=O)c2ccc(CN3CCN(C)CC3)c(Cl)c2)cc1Nc1nccc(-c2cccnc2)n1`: the IC50 is 10 nM.

`O=[N+]([O-])c1cccc(Nc2nccc(-c3cccnc3)n2)c1` had an IC50 of 33900 nM.

Regarding `Cc1ccc(NC(=O)Nc2ccc(N(C)C)cc2)cc1Nc1nccc(-c2cccnc2)n1`, the IC50 is 10000 nM.

Turning to `c1cc(CCN2CCOCC2)cc(Nc2nccc(-c3cccnc3)n2)c1`, the IC50 is 10000 nM.

`CN1CCN(Cc2ccc(C(=O)Nc3cccc(Nc4nccc(-c5cccnc5)n4)c3)cc2)CC1` gave an IC50 of 100 nM.

Consider `COC(=O)c1cccc(Nc2nccc(-c3cccnc3)n2)c1`, for which it took 5130 nM to reach half-maximal inhibition (IC50).

In turn, `Cc1ccc(NC(=O)c2ccc(CN3CCN(C)CC3)c(I)c2)cc1Nc1nccc(-c2cccnc2)n1` showed an IC50 of 10 nM.
